The IC50 is the point on the concentration scale where inhibition reaches its midpoint.

Bounds are passed on as bounds.

The subject of the first experiment is NCI-H358 (K-Ras G12C). Kind of experiment: CellTiter-Glo cell viability assay, NCI-H358. Format: cell-based, human. To be noted: Homo sapiens, NCI-H358, Table 5; read-out: H358 Cell Viability assay data (K-Ras G12C, IC50). The protocol:
Note - The following protocol describes a procedure for monitoring cell viability of K-Ras mutant cancer cell lines in response to a compound of the invention. Other RAS isoforms may be employed, though the number of cells to be seeded will vary based on cell line used.
Test compounds (132.5 nL) were directly dispensed into the assay plates containing cells. […] On day 5, assay plates and their contents were equilibrated to room temperature for approximately 30 minutes. […] Luminescence was measured using the PerkinElmer Enspire. Data were normalized by the following: (Sample signal/Avg. DMSO)*100. The data were fit using a four-parameter logistic fit.
For orientation: In ATP-based viability assays light output follows the ATP content of the culture.
Consider `CO[C@@H](C)c1ncccc1-c1c2c3cc(ccc3n1CC(F)(F)F)-c1nnc(o1)C[C@H](NC(=O)[C@H](C(C)C)N(C)C(=O)[C@H]1CCN(C(=O)C#CC(C)(C)N3CCC3)C1)C(=O)N1CCC[C@H](N1)C(=O)OCC(C)(C)C2` [Compound A423], for which the IC50 is 0.01 to 0.1 µM.

Turning to `CCn1c(-c2cccnc2[C@H](C)OC)c2c3cc(ccc31)N1CCO[C@@H](C[C@H](NC(=O)[C@H](C(C)C)N3CC[C@@]4(CCN(C(=O)C#CC(C)(C)N(C)C)C4)C3=O)C(=O)N3CCC[C@H](N3)C(=O)OCC(C)(C)C2)C1` (atropisomer, axis not shown) [Compound A614], the IC50 is 0.01 to 0.1 µM.

For the compound `CCn1c(-c2cccnc2[C@H](C)OC)c2c3cc(ccc31)-c1cc(cc(C(F)F)c1)C[C@H](NC(=O)[C@H](C(C)C)N(C)C(=O)[C@H]1CCN(C(=O)C#CC(C)(C)N3CCC3)C1)C(=O)N1CCC[C@H](N1)C(=O)OCC(C)(C)C2` (atropisomer, axis not shown) [Compound A466], the IC50 is below 0.01 µM.

Turning to `CO[C@@H](C)c1ncccc1-c1c2c3cc(ccc3n1CC(F)(F)F)-c1csc(n1)C[C@H](NC(=O)[C@H](C(C)C)N(C)C(=O)N1C[C@@H]3OCCN(C(=O)/C=C/CF)[C@@H]3C1)C(=O)N1CCC[C@H](N1)C(=O)OCC(C)(C)C2` (atropisomer, axis not shown) [Compound A571], the IC50 was below 0.01 µM.

Still in this experiment, the particulars now being: Homo sapiens, NCI-H358, read-out: H358 Cell Viability assay data (K-Ras G12C, IC50, uM), Table 5.
Take `CCn1c(-c2cccnc2COC)c2c3cc(ccc31)-c1cc(O)cc(c1)C[C@H](NC(=O)[C@H](C(C)C)N(C)C(=O)[C@H]1CCN(C(=O)/C=C\CN(C)C)C1)C(=O)N1CCC[C@H](N1)C(=O)OCC(C)(C)C2` [Compound A161]: the IC50 was above 1 µM.

As to `C=CS(=O)(=O)N1CC[C@H](C(=O)N(C)[C@H](C(=O)N[C@H]2Cc3cc(O)cc(c3)-c3ccc4c(c3)c(c(-c3cccnc3[C@H](C)OC)n4CC)CC(C)(C)COC(=O)[C@@H]3CCCN(N3)C2=O)C(C)C)C1` [Compound A132], the IC50 was below 0.01 µM.

Regarding `C=CC(=O)N1CC[C@H](C(=O)N(C)[C@H](C(=O)N[C@H]2Cc3cc(O)cc(c3)-c3ccc4c(c3)c(c(-c3cccnc3)n4C3CC3)CC(C)(C)COC(=O)[C@@H]3CCCN(N3)C2=O)C(C)C)C1` [Compound A160], the IC50 fell in the range of 0.1 to 1 µM.

The experiment is the same for the next values; noted with them: Table 5; read-out: H358 Cell Viability assay data (K-Ras G12C, IC50).
For the compound `C=CC(=O)N1C[C@H](C)[C@H](C(=O)N(C)[C@H](C(=O)N[C@H]2Cc3cc(O)cc(c3)-c3ccc4c(c3)c(c(-c3ccccc3CN(C)C)n4CC)CC(C)(C)COC(=O)[C@@H]3CCCN(N3)C2=O)C2CCCC2)C1` [Compound A43], the IC50 lay within 0.01 to 0.1 µM.

For the compound `C=CC(=O)N1CC[C@H](C(=O)N(C)[C@H](C(=O)N[C@H]2Cc3cc(O)cc(c3)-c3ccc4c(c3)c(c(C3=C(COC)COCC3)n4CC)CC(C)(C)COC(=O)[C@@H]3CCCN(N3)C2=O)C(C)C)C1` [Compound A58], the half-maximal inhibitory concentration (IC50) is 0.01 to 0.1 µM.

As for `CCn1c(-c2cccnc2[C@H](C)OC)c2c3cc(ccc31)-c1csc(n1)C[C@H](NC(=O)[C@H](C(C)C)N(C)C(=O)N1C[C@H]3CN(C(=O)C#CC(C)(C)N(C)C)CC[C@H]31)C(=O)N1CCC[C@H](N1)C(=O)OCC(C)(C)C2` (atropisomer, axis not shown) [Compound A624], the IC50 was below 0.01 µM.

Take `C=CC(=O)N1CC[C@H](C(=O)N(C)[C@H](C(=O)N[C@H]2Cc3cc(O)cc(c3)-c3ccc4c(c3)c(c(-c3ccccc3)n4CC)CC(C)(C)COC(=O)[C@@H]3CCCN(N3)C2=O)C(C)C)C1` [Compound A23]: the IC50 lay in the range of 0.1 to 1 µM.

For the compound `C=CC(=O)N1CC[C@H](C(=O)N(C)[C@H](C(=O)N[C@H]2Cc3cc(O)cc(c3)-c3ccc4c(c3)c(c(C3=C(COC)CCCC3)n4CC)CC(C)(C)COC(=O)[C@@H]3CCCN(N3)C2=O)C(C)C)C1` [Compound A64], the IC50 is 0.01 to 0.1 µM.

For the compound `C=CC(=O)N1CC[C@H](C(=O)N(C)[C@H](C(=O)N[C@H]2Cc3cc(O)cc(c3)-c3ccc4c(c3)c(c(-c3c(CCOC)cccc3OC)n4CC)CC(C)(C)COC(=O)[C@@H]3CCCN(N3)C2=O)C(C)C)C1` [Compound A80], the IC50 was 0.1 to 1 µM.

`C=CC(=O)N1CC[C@H](C(=O)N(C)[C@H](C(=O)N[C@H]2Cc3cc(O)cc(c3)-c3ccc4c(c3)c(c(-c3cc(F)cnc3COC)n4CC)CC(C)(C)COC(=O)[C@@H]3CCCN(N3)C2=O)C(C)C)C1` [Compound A82]: the IC50 was in the range of 0.01 to 0.1 µM.

Turning to `C=CC(=O)N1CC[C@H](C(=O)N(C)[C@H](C(=O)N[C@H]2Cc3cc(O)cc(c3)-c3ccc4c(c3)c(c(-c3ccc(CN(C)C)cc3COC)n4CC)CC(C)(C)COC(=O)[C@@H]3CCCN(N3)C2=O)C(C)C)C1` [Compound A51], the IC50 was 0.01 to 0.1 µM.

Take `C=CC(=O)N1CC[C@H](C(=O)N(C)[C@H](C(=O)N[C@H]2Cc3cc(cc(O)c3F)-c3ccc4c(c3)c(c(-c3ccccc3CCOC)n4CC)CC(C)(C)COC(=O)[C@@H]3CCCN(N3)C2=O)C(C)C)C1` [Compound A9]: the IC50 lay in the range of 0.1 to 1 µM.

For the compound `C=CC(=O)N1CC[C@H](C(=O)N(C)[C@H](C(=O)N[C@H]2Cc3cc(O)cc(c3)-c3ccc4c(c3)c(c(-c3cn(C)cn3)n4CC)CC(C)(C)COC(=O)[C@@H]3CCCN(N3)C2=O)C(C)C)C1` [Compound A113], the 50% inhibitory concentration (IC50) is 0.1 to 1 µM.

Regarding `C=CC(=O)N1CC[C@H](C(=O)N(C)[C@H](C(=O)N[C@H]2Cc3cc(O)cc(c3)-c3ccc4c(c3)c(c(-c3ccc(CC(=O)O)cc3)n4CC)CC(C)(C)COC(=O)[C@@H]3CCCN(N3)C2=O)C(C)C)C1` [Compound A21], the IC50 is above 1 µM.

On to `C=CC(=O)N1CC[C@H](C(=O)N(C)[C@H](C(=O)N[C@H]2Cc3cc(O)cc(c3)-c3ccc4c(c3)c(c(-c3cccnc3COC)n4CC)CC(C)(C)COC(=O)[C@@H]3CCCN(N3)C2=O)C2CCCC2)C1` [Compound A55], for which the half-inhibitory concentration (IC50) is below 0.01 µM.

`C=CC(=O)N1C[C@H](C)[C@H](C(=O)N(C)[C@H](C(=O)N[C@H]2Cc3cc(O)cc(c3)-c3ccc4c(c3)c(c(-c3ccccc3CCOC)n4CC)CC(C)(C)COC(=O)[C@@H]3CCCN(N3)C2=O)C(C)C)C1` [Compound A41]: the IC50 was in the range of 0.01 to 0.1 µM.

For the compound `C=CC(=O)N1CC[C@H](C(=O)N(C)[C@H](C(=O)N[C@H]2Cc3cc(O)cc(c3)-c3cc(F)c4c(c3)c(c(-c3ccccc3CCOC)n4CC)CC(C)(C)COC(=O)[C@@H]3CCCN(N3)C2=O)C(C)C)C1` [Compound A53], the IC50 fell in the range of 0.1 to 1 µM.

As to `C=CC(=O)N1CC[C@H](C(=O)N(C)[C@H](C(=O)N[C@H]2Cc3cc(OC(C)=O)cc(c3)-c3ccc4c(c3)c(c(-c3ccccc3CN(C)C)n4CC)CC(C)(C)COC(=O)[C@@H]3CCCN(N3)C2=O)C(C)C)C1` [Compound A59], the 50% inhibitory concentration (IC50) was in the range of 0.1 to 1 µM.

As to `C=CC(=O)N1CC2CCC1CN2C(=O)N(C)[C@H](C(=O)N[C@H]1Cc2nc(cs2)-c2ccc3c(c2)c(c(-c2cccnc2[C@H](C)OC)n3CC)CC(C)(C)COC(=O)[C@@H]2CCCN(N2)C1=O)C(C)C` [Compound A420], the IC50 is 0.01 to 0.1 µM.

As to `C=CC(=O)N1CC[C@H](C(=O)N(C)[C@H](C(=O)N[C@H]2Cc3cc(O)cc(c3)-c3ccc4c(c3)c(c(-c3cnccc3C)n4CC)CC(C)(C)COC(=O)[C@@H]3CCCN(N3)C2=O)C(C)C)C1` [Compound A77], the half-inhibitory concentration (IC50) fell in the range of 0.01 to 0.1 µM.

The experiment is the same for the next values; noted with them: read-out: H358 Cell Viability assay data (K-Ras G12C, IC50); Table 5.
In the case of `C=CC(=O)N1CCN(C(=O)N(C)[C@H](C(=O)N[C@H]2Cc3nc(cs3)-c3ccc4c(c3)c(c(-c3cccnc3[C@H](C)OC)n4CC(F)(F)F)CC(C)(C)COC(=O)[C@@H]3CCCN(N3)C2=O)C(C)C)CC1` [Compound A465], the IC50 was below 0.01 µM.

Values taken from patent EP4806900A2, “RAS INHIBITORS” (Revolution Medicines, Inc., priority 2019, dated 2021).
